According to paper PMC5833756, “A novel ruthenium complex with xanthoxylin induces S-phase arrest and causes ERK1/2-mediated apoptosis in HepG2 cells through a p53-independent pathway” (Cell Death & Disease, 2018):
Like-named read-outs stand apart in the source and are kept apart here. Marks after values point to notes of the source that are not given here.

Columns and labels:
[1] = tested on: HCT116; format: cell-based, human
[2] = tested on: B16-F10; format: cell-based, mouse
[3] = tested on: HT-29; format: cell-based, human
[4] = tested on: HepG2; format: cell-based, human
[5] = tested on: SCC-9; format: cell-based, human
[6] = tested on: HaCAT; format: cell-based; conditions: HaCAT (human keratinocyte, non-cancer), 72 h
[7] = tested on: SCC-15; format: cell-based, human
[8] = tested on: AGP-01; conditions: AGP-01 (human ascitic gastric adenocarcinoma), 72 h
[9] = tested on: MCF-7; format: cell-based, human
[10] = tested on: BAD KO SV40 MEF; format: cell-based, mouse; conditions: Mus musculus, 72 h
[11] = tested on: HSC-3; format: cell-based, human
[12] = tested on: SCC-25; format: cell-based, human
[13] = tested on: ACP-03; format: cell-based, human
[14] = tested on: multicellular spheroids formed from HepG2 cells; assay: 3D multicellular spheroid culture, alamar blue; format: cell-based, human; conditions: Homo sapiens; HepG2 3D spheroids, 72 h
Procedure: HepG2 cells were cultivated in 3D multicellular spheroids. Briefly, 100 μL of cell solution (0.5 × 10^6 cells/mL) was added to a 96-well plate with a cell-repellent surface (Greiner Bio-One, Kremsmünster, Austria) and cultured in complete medium plus 3% Matrigel (BD Biosciences, San Jose, CA, USA). Spheroids with stable structures formed after three days. Then, the spheroids were exposed to a range of drug concentrations for 72 h. The negative control received the vehicle that was used for diluting the complex tested. In the end of the experiment, morphological changes were examined by light microscopy (Olympus BX41, Tokyo, Japan) using Image-Pro software (Media Cybernetics, Inc. Silver Spring, USA), and cell viability was quantified by alamar blue assay as described above.

[15] = tested on: WT SV40 MEF; format: cell-based, mouse; conditions: Mus musculus, 72 h
[16] = tested on: HepG2 cells; assay: Trypan blue exclusion assay; format: cell-based, human; conditions: HepG2, 24 h; DOX 2 µM, OXA 10 µM
[17] = tested on: PBMC; format: cell-based; conditions: PBMC (human peripheral blood mononuclear cells, non-cancer), 72 h
[18] = tested on: MRC-5; format: cell-based; conditions: MRC5; MRC-5 (human lung fibroblast, non-cancer), 72 h
[19] = tested on: ACP-02; format: cell-based, human
[20] = tested on: SCC-4; format: cell-based, human
[21] = tested on: HepG2 cells; format: cell-based, human; conditions: DOX 2 µM, OXA 10 µM, RCX 12 µM
Procedure: Briefly, the cells were harvested in a permeabilization solution containing 0.1% Triton X-100, 2 µg/mL PI, 0.1% sodium citrate and 100 µg/mL RNAse (all from Sigma-Aldrich) and incubated in the dark for 15 min at room temperature. Finally, cell fluorescence was measured by flow cytometry with a BD LSRFortessa cytometer using BD FACSDiva Software (BD Biosciences) and FlowJo Software 10 (FlowJo Lcc; Ashland, OR, USA). Ten thousand events were evaluated per experiment, and cellular debris was omitted from the analysis.

[22] = i.p. 21 days, DOX 0.3 mg/kg, 5-FU 10 mg/kg, RCX 2.5 mg/kg
[23] = peripheral blood, i.p. 21 days, DOX 0.3 mg/kg, 5-FU 10 mg/kg, RCX 2.5 mg/kg
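Wherever Final body weight is given: mice bearing subcutaneous HepG2 xenografts, given intraperitoneal doses once daily for 21 days, weighed at start and end, blood leukocytes counted by light microscopy on day 22.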
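Wherever Initial body weight is given: mice bearing subcutaneous HepG2 xenografts, given intraperitoneal doses once daily for 21 days, weighed at start and end, blood leukocytes counted by light microscopy on day 22.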
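Wherever Survival is given: mice bearing subcutaneous HepG2 xenografts, given intraperitoneal doses once daily for 21 days, weighed at start and end, blood leukocytes counted by light microscopy on day 22.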
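Wherever lung histopathological characteristics is given: mice bearing subcutaneous HepG2 xenografts, given intraperitoneal doses once daily for 21 days, weighed at start and end, blood leukocytes counted by light microscopy on day 22.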

COc1cccc2c1C(=O)c1c(O)c3c(c(O)c1C2=O)C[C@@](O)(C(=O)CO)C[C@@H]3O[C@H]1C[C@H](N)[C@H](O)[C@H](C)O1 [DOX, doxorubicin]
IC50 ([1]; HCT-116, HCT116 (human colon carcinoma), 72 h): 200 nM | selectivity index (SI) ([1]; IC50 HaCAT / IC50 HCT116): 0.5 | selectivity index (SI) ([1]; IC50 MRC5 / IC50 HCT116): 6.5 | selectivity index (SI) ([1]; IC50 PBMC / IC50 HCT116): 26 | selectivity index (SI) ([2]; IC50 HaCAT / IC50 B16-F10): 0.2 | selectivity index (SI) ([2]; IC50 MRC5 / IC50 B16-F10): 2.2 | selectivity index (SI) ([2]; IC50 PBMC / IC50 B16-F10): 8.7 | IC50 ([2]; Mus musculus, B16-F10 (murine melanoma), 72 h): 600 nM | IC50 ([3]; HT-29 (human colon adenocarcinoma), 72 h): 300 nM | selectivity index (SI) ([3]; IC50 HaCAT / IC50 HT-29): 0.3 | selectivity index (SI) ([3]; IC50 MRC5 / IC50 HT-29): 4.3 | selectivity index (SI) ([3]; IC50 PBMC / IC50 HT-29): 17.3 | IC50 ([4]; HepG2 (human hepatocellular carcinoma), monolayer, 72 h): 1300 nM | selectivity index (SI) ([4]; IC50 HaCAT / IC50 HepG2): 0.1 | selectivity index (SI) ([4]; IC50 MRC5 / IC50 HepG2): 1 | selectivity index (SI) ([4]; IC50 PBMC / IC50 HepG2): 4 | selectivity index (SI) ([5]; IC50 HaCAT / IC50 SCC-9): 0.04 | selectivity index (SI) ([5]; IC50 MRC5 / IC50 SCC-9): 0.5 | selectivity index (SI) ([5]; IC50 PBMC / IC50 SCC-9): 2 | IC50 ([5]; SCC-9 (human oral squamous cell carcinoma), 72 h): 2600 nM | IC50 [6]: 100 nM | selectivity index (SI) ([7]; IC50 HaCAT / IC50 SCC-15): 0.1 | selectivity index (SI) ([7]; IC50 MRC5 / IC50 SCC-15): 0.9 | selectivity index (SI) ([7]; IC50 PBMC / IC50 SCC-15): 3.5 | IC50 ([7]; SCC-15 (human oral squamous cell carcinoma), 72 h): 1500 nM | IC50 [8]: 1900 nM | selectivity index (SI) ([9]; IC50 HaCAT / IC50 MCF-7): 0.1 | selectivity index (SI) ([9]; IC50 MRC5 / IC50 MCF-7): 1.2 | selectivity index (SI) ([9]; IC50 PBMC / IC50 MCF-7): 4.7 | IC50 ([9]; MCF7, MCF-7 (human breast adenocarcinoma), 72 h): 1100 nM | IC50 [10]: 410 nM | IC50 ([11]; HSC-3 (human oral squamous cell carcinoma), 72 h): 400 nM | selectivity index (SI) ([11]; IC50 HaCAT / IC50 HSC-3): 0.3 | selectivity index (SI) ([11]; IC50 MRC5 / IC50 HSC-3): 3.3 | selectivity index (SI) ([11]; IC50 PBMC / IC50 HSC-3): 13 | selectivity index (SI) ([12]; IC50 HaCAT / IC50 SCC-25): 0.1 | selectivity index (SI) ([12]; IC50 MRC5 / IC50 SCC-25): 1.3 | selectivity index (SI) ([12]; IC50 PBMC / IC50 SCC-25): 5.2 | IC50 ([12]; SCC-25 (human oral squamous cell carcinoma), 72 h): 1000 nM | IC50 ([13]; ACP-03 (human gastric adenocarcinoma), 72 h): 2400 nM | selectivity index (SI) ([13]; IC50 HaCAT / IC50 ACP-03): 0.04 | selectivity index (SI) ([13]; IC50 MRC5 / IC50 ACP-03): 0.5 | selectivity index (SI) ([13]; IC50 PBMC / IC50 ACP-03): 2.2 | IC50 [14]: 18100 nM | IC50 [15]: 40 nM | change in the number of viable cells [16]: reduced the number of viable cells | lung histopathological characteristics (atelectasis, hemorrhage, inflammation, congestion, doxorubicin 0.3 mg/kg, RCX both doses, 21 days): more pronounced in the doxorubicin and RCX (both doses) groups than in the other groups | Initial body weight (before treatment, DOX 0.3 mg/kg, 5-FU 10 mg/kg, RCX 2.5 mg/kg groups): 22.3 ± 0.4 g | Final body weight [22]: 19.5 ± 0.6 g | Survival [22]: 14/14 | Differential leukocytes: Eosinophils [23]: 1.0% | Differential leukocytes: Lymphocytes [23]: 49.3% | Differential leukocytes: Monocytes [23]: 1.0% | Differential leukocytes: Neutrophils [23]: 48.8% | Erythrocytes [23]: 8.9 ± 0.7 10^6cells/μL | Total leukocytes [23]: 1.5 ± 0.2* 10^3cells/μL | IC50 [17]: 5200 nM | IC50 [18]: 1300 nM | IC50 ([19]; ACP-02 (human gastric adenocarcinoma), 72 h): 6800 nM | selectivity index (SI) ([19]; IC50 HaCAT / IC50 ACP-02): 0.02 | selectivity index (SI) ([19]; IC50 MRC5 / IC50 ACP-02): 0.2 | selectivity index (SI) ([19]; IC50 PBMC / IC50 ACP-02): 0.8 | selectivity index (SI) ([20]; IC50 HaCAT / IC50 SCC-4): 0.1 | selectivity index (SI) ([20]; IC50 MRC5 / IC50 SCC-4): 0.6 | selectivity index (SI) ([20]; IC50 PBMC / IC50 SCC-4): 2.5 | IC50 ([20]; SCC-4 (human oral squamous cell carcinoma), 72 h): 2100 nM | DNA content G0/G1 ([21]; HepG2, 12 h): 51.9 ± 4.8% | DNA content G2/M ([21]; HepG2, 12 h): 22.6 ± 2.6% | DNA content S ([21]; HepG2, 12 h): 6.9 ± 0.1% | DNA content Sub-G0/G1 ([21]; HepG2, 12 h): 13.4 ± 1.2 % | DNA content G0/G1 ([21]; HepG2, 24 h): 20.9 ± 3.3 % | DNA content G2/M ([21]; HepG2, 24 h): 66.9 ± 5.5 % | DNA content S ([21]; HepG2, 24 h): 8.9 ± 2.3 % | DNA content Sub-G0/G1 ([21]; HepG2, 24 h): 16.8 ± 4.3 % | DNA content G0/G1 ([21]; HepG2, 48 h): 34.6 ± 2.7 % | DNA content G2/M ([21]; HepG2, 48 h): 31.1 ± 3.3 % | DNA content S ([21]; HepG2, 48 h): 9.1 ± 1.9% | DNA content Sub-G0/G1 ([21]; HepG2, 48 h): 20.9 ± 1.0 % | DNA content G0/G1 ([21]; HepG2, 72 h): 31.6 ± 5.1 % | DNA content G2/M ([21]; HepG2, 72 h): 16.3 ± 1.1% | DNA content S ([21]; HepG2, 72 h): 12.5 ± 1.1% | DNA content Sub-G0/G1 ([21]; HepG2, 72 h): 46.6 ± 2.8 %
